In US12643903B2, “Bifunctional compounds for degradation of EGFR and related methods of use” (BeiGene, Ltd., priority 2020, dated 2026):

Tests used:
EGFR [1] = target: T1, EGFR (Homo sapiens, UniProt P00533, L858R/T790M); experiment: Cell Degradation 1: EGFR degradation in H1975 cells, HTRF assay; type: cell-based; details: 16 h treatment, EGFR degradation by HTRF
T1 construct: endogenous in cells; host or cells: H1975
Description: After 16 h treatment, add 100 μl 1×lysis buffer to each well; seal the plate and incubate 1 hour at room temperature on a plate shaker; Once the cells are lysed, 16 μL of cell lysate are transferred to a PE 384-well HTRF detection plate; 4 μL of pre-mixed HTRF antibodies are added to each well; Cover the plate with a plate sealer, spin 1000 rpm for 1 min, Incubate overnight at room temperature; Read on BMG PheraStar with HTRF protocol (337 nm-665 nm-620 nm).
(§1) The IC50 (DC50) value of a compound can be obtained by fitting the following equation Y=Bottom+(TOP−Bottom)/(1+((IC50/X)^hillslope))
(§2) Wherein, X and Y are known values, and IC50, Hillslope, Top and Bottom are the parameters obtained by fitting with software. Y is the inhibition percentage (calculated from the equation), X is the concentration of the compound; IC50 is the concentration of the compound when the 50% inhibition is reached. The smaller the IC50 value is, the stronger the inhibitory ability of the compound is. Vice versa, the higher the IC50 value is, the weaker the ability the inhibitory ability of the compound is; Hillslope represents the slope of the fitted curve, generally around 1*; Bottom represents the minimum value of the curve obtained by data fitting, which is generally 0%±20%; Top represents the maximum value of the curve obtained by data fitting, which is generally 100%±20%. The experimental data were fitted by calculating and analyzing with Dotmatics data analysis software.

EGFR [2] = target: T2, EGFR (Homo sapiens, UniProt P00533, DEL746-750); experiment: Cell Degradation 2: EGFR degradation in HCC827 cells, HTRF assay; type: cell-based; details: 16 h treatment, EGFR degradation by HTRF
T2 construct: endogenous in cells; host or cells: HCC827
T2 sequence (P00533 with tags, fused parts or gaps DEL746-750): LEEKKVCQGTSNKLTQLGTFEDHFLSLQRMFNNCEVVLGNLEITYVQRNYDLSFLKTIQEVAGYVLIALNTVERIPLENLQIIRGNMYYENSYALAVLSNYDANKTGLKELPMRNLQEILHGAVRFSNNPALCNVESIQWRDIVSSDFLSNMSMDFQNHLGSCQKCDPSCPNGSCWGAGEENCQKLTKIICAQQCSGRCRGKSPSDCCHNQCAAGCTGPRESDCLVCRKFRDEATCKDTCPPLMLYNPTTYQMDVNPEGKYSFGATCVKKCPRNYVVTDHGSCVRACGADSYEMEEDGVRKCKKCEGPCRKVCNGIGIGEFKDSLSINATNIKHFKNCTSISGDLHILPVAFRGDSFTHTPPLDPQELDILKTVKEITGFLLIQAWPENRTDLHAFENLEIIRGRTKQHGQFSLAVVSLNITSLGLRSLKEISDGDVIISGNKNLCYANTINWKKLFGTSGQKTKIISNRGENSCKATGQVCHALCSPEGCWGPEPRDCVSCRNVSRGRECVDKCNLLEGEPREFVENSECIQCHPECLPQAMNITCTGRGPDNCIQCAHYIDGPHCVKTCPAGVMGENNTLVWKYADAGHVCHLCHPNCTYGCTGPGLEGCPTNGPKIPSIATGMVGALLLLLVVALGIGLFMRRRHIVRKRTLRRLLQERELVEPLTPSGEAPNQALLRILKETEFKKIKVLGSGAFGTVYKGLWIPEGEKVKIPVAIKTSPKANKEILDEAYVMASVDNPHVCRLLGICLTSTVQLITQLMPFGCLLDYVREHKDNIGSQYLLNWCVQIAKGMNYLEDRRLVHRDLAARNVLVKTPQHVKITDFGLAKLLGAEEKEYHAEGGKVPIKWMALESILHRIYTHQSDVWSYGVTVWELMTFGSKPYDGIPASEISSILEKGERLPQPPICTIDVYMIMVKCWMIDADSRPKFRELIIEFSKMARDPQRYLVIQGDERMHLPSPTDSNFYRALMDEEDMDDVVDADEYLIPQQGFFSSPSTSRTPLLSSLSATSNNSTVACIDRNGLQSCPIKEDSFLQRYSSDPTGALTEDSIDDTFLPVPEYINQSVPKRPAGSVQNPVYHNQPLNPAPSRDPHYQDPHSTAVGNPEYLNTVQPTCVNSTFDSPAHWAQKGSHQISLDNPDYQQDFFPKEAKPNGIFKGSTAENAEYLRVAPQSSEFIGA
T2 sequence (Q96SW2 whole entry partner): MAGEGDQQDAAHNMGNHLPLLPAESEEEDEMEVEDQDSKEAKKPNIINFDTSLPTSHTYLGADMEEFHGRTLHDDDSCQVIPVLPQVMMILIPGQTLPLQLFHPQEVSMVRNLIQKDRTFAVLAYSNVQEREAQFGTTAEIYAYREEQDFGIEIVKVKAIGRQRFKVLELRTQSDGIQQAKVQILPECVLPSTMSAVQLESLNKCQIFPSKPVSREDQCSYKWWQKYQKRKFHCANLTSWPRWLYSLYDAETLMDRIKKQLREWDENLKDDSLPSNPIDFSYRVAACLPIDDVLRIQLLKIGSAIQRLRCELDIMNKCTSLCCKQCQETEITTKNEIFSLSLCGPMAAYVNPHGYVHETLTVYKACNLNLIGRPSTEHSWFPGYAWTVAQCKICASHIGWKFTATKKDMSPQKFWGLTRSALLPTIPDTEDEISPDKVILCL
Description: After 16 h treatment, add 100 μl 1×lysis buffer to each well; seal the plate and incubate 1 hour at room temperature on a plate shaker; Once the cells are lysed, 16 μl diluted (2 μL to 14 μl 1× lysisi buffer) cell lysate are transferred to a PE 384-well HTRF detection plate; 4 μL of pre-mixed HTRF antibodies are added to each well; Cover the plate with a plate sealer, spin 1000 rpm for 1 min, Incubate overnight at room temperature; Read on BMG PheraStar with HTRF protocol (337 nm-665 nm-620 nm).
as §1, §2

T1 sequence (P00533 25-1210 T790M/L858R): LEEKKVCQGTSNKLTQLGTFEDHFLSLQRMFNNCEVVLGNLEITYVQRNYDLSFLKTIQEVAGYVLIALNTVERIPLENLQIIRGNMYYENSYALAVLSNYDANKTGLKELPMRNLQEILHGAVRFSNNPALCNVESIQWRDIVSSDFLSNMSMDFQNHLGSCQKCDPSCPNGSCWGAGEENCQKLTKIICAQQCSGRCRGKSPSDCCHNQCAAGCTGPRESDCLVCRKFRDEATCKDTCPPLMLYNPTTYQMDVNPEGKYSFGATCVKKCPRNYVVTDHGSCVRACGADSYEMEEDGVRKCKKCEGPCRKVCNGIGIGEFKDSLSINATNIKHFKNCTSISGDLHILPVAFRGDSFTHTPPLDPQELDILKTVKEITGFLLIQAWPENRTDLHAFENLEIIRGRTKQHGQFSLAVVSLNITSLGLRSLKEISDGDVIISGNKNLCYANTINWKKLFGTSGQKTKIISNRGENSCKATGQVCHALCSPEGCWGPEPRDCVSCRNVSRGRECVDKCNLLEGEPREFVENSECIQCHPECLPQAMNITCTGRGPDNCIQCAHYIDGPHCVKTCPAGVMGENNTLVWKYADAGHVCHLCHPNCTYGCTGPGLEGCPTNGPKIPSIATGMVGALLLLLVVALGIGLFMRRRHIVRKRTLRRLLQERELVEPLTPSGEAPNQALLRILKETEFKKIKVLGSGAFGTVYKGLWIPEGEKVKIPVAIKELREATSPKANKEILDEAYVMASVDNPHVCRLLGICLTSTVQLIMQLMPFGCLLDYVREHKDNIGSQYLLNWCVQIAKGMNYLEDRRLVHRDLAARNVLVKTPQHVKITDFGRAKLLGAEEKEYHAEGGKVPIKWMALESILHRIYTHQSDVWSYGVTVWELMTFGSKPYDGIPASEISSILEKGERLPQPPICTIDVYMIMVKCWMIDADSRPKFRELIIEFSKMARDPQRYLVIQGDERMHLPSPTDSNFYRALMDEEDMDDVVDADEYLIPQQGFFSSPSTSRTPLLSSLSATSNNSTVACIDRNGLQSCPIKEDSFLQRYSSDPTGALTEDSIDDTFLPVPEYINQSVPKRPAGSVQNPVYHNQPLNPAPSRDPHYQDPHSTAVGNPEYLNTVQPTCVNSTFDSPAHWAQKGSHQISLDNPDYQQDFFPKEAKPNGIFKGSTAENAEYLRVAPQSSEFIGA

SMILES | DC50 (EGFR [1]) | DC50 (EGFR [2])
CS(=O)(=O)N1CCc2cccc(Nc3nc(Nc4ccc(N5CCC(N6CCN(CCC7CCN(c8ccc(C9CCC(=O)NC9=O)c(F)c8)CC7)CC6)CC5)c(F)c4)nc4[nH]ccc34)c21 (stereo not drawn) [Example 9, 3-(2-fluoro-4-(4-(2-(4-(1-(2-fluoro-4-((4-((1-(methylsulfonyl)indolin-7-yl)amino)-7H-pyrrolo[2,3-d]pyrimidin-2-yl)amino)phenyl)piperidin-4-yl)piperazin-1-yl)ethyl)piperidin-1-yl)phenyl)piperidine-2,6-dione] | 19.1 nM | 16.7 nM
COc1cc(N2CCC(N3CCN(CCCC4CN(c5ccc6c(c5)C(=O)N(C5CCC(=O)NC5=O)C6=O)C4)CC3)CC2)c(C)cc1Nc1ncc(Br)c(Nc2cccc3c2N(S(C)(=O)=O)CC3)n1 (stereo not drawn) [Example 44, 5-(3-(3-(4-(1-(4-((5-bromo-4-((1-(methylsulfonyl)indolin-7-yl)amino)pyrimidin-2-yl)amino)-5-methoxy-2-methylphenyl)piperidin-4-yl)piperazin-1-yl)propyl)azetidin-1-yl)-2-(2,6-dioxopiperidin-3-yl)isoindoline-1,3-done] | 10.9 nM | 4.6 nM
CS(=O)(=O)N1CCc2cccc(Nc3nc(Nc4ccc(N5CCC(N6CCN(CCc7ccc(C8CCC(=O)NC8=O)c(F)c7F)CC6)CC5)c(F)c4)nc4[nH]ccc34)c21 (stereo not drawn) [Example 69, 3-(2,3-difluoro-4-(2-(4-(1-(2-fluoro-4-((4-((1-(methylsulfonyl)indolin-7-yl)amino)-7H-pyrrolo[2,3-d]pyrimidin-2-yl)amino)phenyl)piperidin-4-yl)piperazin-1-yl)ethyl)phenyl)piperidine-2,6-dione] | 10.8 nM | 29.8 nM
CS(=O)(=O)N1CCc2cccc(Nc3nc(Nc4ccc(N5CCC(N6CCN(CC7CN(c8ccc9c(c8)C(=O)N(C8CCC(=O)NC8=O)C9=O)C7)CC6)CC5)c(F)c4)nc4[nH]ccc34)c21 (stereo not drawn) [Example 60, 2-(2,6-dioxopiperidin-3-yl)-5-(3-((4-(1-(2-fluoro-4-((4-((1-(methylsulfonyl)indolin-7-yl)amino)-7H-pyrrolo[2,3-d]pyrimidin-2-yl)amino)phenyl)piperidin-4-yl)piperazin-1-yl)methyl)azetidin-1-yl)isoindoline-1,3-dione] | 4.9 nM | 14.6 nM
CS(=O)(=O)N1CCc2cccc(Nc3nc(Nc4ccc(N5CCC(N6CCN(CC7CN(c8ccc9c(c8)CN(C8CCC(=O)NC8=O)C9=O)C7)CC6)CC5)c(F)c4)nc4[nH]ccc34)c21 (stereo not drawn) [Example 59, 3-(5-(3-((4-(1-(2-fluoro-4-((4-((1-(methylsulfonyl)indolin-7-yl)amino)-7H-pyrrolo[2,3-d]pyrimidin-2-yl)amino)phenyl)piperidin-4-yl)piperazin-1-yl)methyl)azetidin-1-yl)-1-oxoisoindolin-2-yl)piperidine-2,6-dione] | 2.7 nM | 3.1 nM
CN(CCc1ccc(C2CCC(=O)NC2=O)c(F)c1)C1CCN(c2ccc(Nc3ncc(Cl)c(Nc4cccc5c4N(S(C)(=O)=O)CC5)n3)c3c2CCO3)CC1 (stereo not drawn) [Example 48, 3-(4-(2-((1-(7-((5-chloro-4-((1-(methylsulfonyl)indolin-7-yl)amino)pyrimidin-2-yl)amino)-2,3-dihydrobenzofuran-4-yl)piperidin-4-yl)(methyl)amino)ethyl)-2-fluorophenyl)piperidine-2,6-dione] | > 10000 nM | 51.8 nM
CN(CCC1CCN(c2ccc(C3CCC(=O)NC3=O)cc2)CC1)C1CCN(c2ccc(Nc3ncc(Cl)c(Nc4cccc5c4N(S(C)(=O)=O)CC5)n3)c3c2CCO3)CC1 (stereo not drawn) [Example 49, 3-(4-(4-(2-((1-(7-((5-chloro-4-((1-(methylsulfonyl)indolin-7-yl)amino)pyrimidin-2-yl)amino)-2,3-dihydrobenzofuran-4-yl)piperidin-4-yl)(methyl)amino)ethyl)piperidin-1-yl)phenyl)piperidine-2,6-dione] | > 10000 nM | 138 nM
CS(=O)(=O)N1CCc2cccc(Nc3nc(Nc4ccc(N5CCC(N6CCN(C(=O)C7CCN(CC8CCN(c9ccc%10c(c9)C(=O)N(C9CCC(=O)NC9=O)C%10=O)CC8)CC7)CC6)CC5)c(F)c4)nc4[nH]ccc34)c21 (stereo not drawn) [Example 14, 2-(2,6-dioxopiperidin-3-yl)-5-(4-((4-(4-(1-(2-fluoro-4-((4-((1-(methylsulfonyl)indolin-7-yl)amino)-7H-pyrrolo[2,3-d]pyrimidin-2-yl)amino)phenyl)piperidin-4-yl)piperazine-1-carbonyl)piperidin-1-yl)methyl)piperidin-1-yl)isoindoline-1,3-dione] | 27.1 nM | 92.2 nM
CS(=O)(=O)N1CCc2cccc(Nc3nc(Nc4ccc(N5CCC(N6CCN(CCC7CCN(c8ccc9c(c8)C(=O)N(C8CCC(=O)NC8=O)C9=O)CC7)CC6)CC5)c(F)c4)ncc3Cl)c21 (stereo not drawn) [Example 81, 5-(4-(2-(4-(1-(4-((5-chloro-4-((1-(methylsulfonyl)indolin-7-yl)amino)pyrimidin-2-yl)amino)-2-fluorophenyl)piperidin-4-yl)piperazin-1-yl)ethyl)piperidin-1-yl)-2-(2,6-dioxopiperidin-3-yl)isoindoline-1,3-dione] | 12.2 nM | 3.4 nM
COc1cc(N2CCC(N3CCN(CCC4CCN(c5ccc(C6CCC(=O)NC6=O)cc5)CC4)CC3)CC2)c(C)cc1Nc1ncc(Br)c(Nc2cccc3c2N(S(C)(=O)=O)CC3)n1 (stereo not drawn) [Example 41, 3-(4-(4-(2-(4-(1-(4-((5-bromo-4-((1-(methylsulfonyl)indolin-7-yl)amino)pyrimidin-2-yl)amino)-5-methoxy-2-methylphenyl)piperidin-4-yl)piperazin-1-yl)ethyl)piperidin-1-yl)phenyl)piperidine-2,6-dione] | 20.7 nM | 16.7 nM
CS(=O)(=O)N1CCc2cccc(Nc3nc(Nc4ccc(N5CCC(N6CCN(C(=O)[C@H]7CCN(c8ccc9c(c8)C(=O)N(C8CCC(=O)NC8=O)C9=O)C7)CC6)CC5)c(F)c4)nc4[nH]ccc34)c21 (stereo partly drawn) [Example 63, 2-(2,6-dioxopiperidin-3-yl)-5-((S)-3-(4-(1-(2-fluoro-4-((4-((1-(methylsulfonyl)indolin-7-yl)amino)-7H-pyrrolo[2,3-d]pyrimidin-2-yl)amino)phenyl)piperidin-4-yl)piperazine-1-carbonyl)pyrrolidin-1-yl)isoindoline-1,3-dione] | 3.9 nM | > 10000 nM
CS(=O)(=O)N1CCc2cccc(Nc3nc(Nc4ccc(N5CCC(N6CCN(CCCOc7ccc(OC8CCC(=O)NC8=O)cc7)CC6)CC5)c(F)c4)nc4[nH]ccc34)c21 (stereo not drawn) [Example 4, 3-(4-(3-(4-(1-(2-fluoro-4-((4-((1-(methylsulfonyl)indolin-7-yl)amino)-7H-pyrrolo[2,3-d]pyrimidin-2-yl)amino)phenyl)piperidin-4-yl)piperazin-1-yl)propoxy)phenoxy)piperidine-2,6-dione] | 15.5 nM | > 10000 nM
CS(=O)(=O)N1CCc2cccc(Nc3nc(Nc4ccc(N5CCC(N6CCN(CCOc7cccc8c7CN(C7CCC(=O)NC7=O)C8=O)CC6)CC5)c(F)c4)nc4[nH]ccc34)c21 (stereo not drawn) [Example 20, 3-(4-(2-(4-(1-(2-fluoro-4-((4-((1-(methylsulfonyl)indolin-7-yl)amino)-7H-pyrrolo[2,3-d]pyrimidin-2-yl)amino)phenyl)piperidin-4-yl)piperazin-1-yl)ethoxy)-1-oxoisoindolin-2-yl)piperidine-2,6-dione] | 9.7 nM | 14.7 nM
CN(CCC1CCN(c2ccc3c(c2)C(=O)N(C2CCC(=O)NC2=O)C3=O)CC1)C1CCN(c2ccc(Nc3ncc(Cl)c(Nc4cccc5c4N(S(C)(=O)=O)CC5)n3)c3c2CCO3)CC1 (stereo not drawn) [Example 47, 5-(4-(2-((1-(7-((5-chloro-4-((1-(methylsulfonyl)indolin-7-yl)amino)pyrimidin-2-yl)amino)-2,3-dihydrobenzofuran-4-yl)piperidin-4-yl)(methyl)amino)ethyl)piperidin-1-yl)-2-(2,6-dioxopiperidin-3-yl)isoindoline-1,3-dione] | 21.4 nM | 13.8 nM
CS(=O)(=O)N1CCc2cccc(Nc3nc(Nc4ccc(N5CCC(N6CCN(CC[C@@H]7CCN(c8ccc(C9CCC(=O)NC9=O)cc8)C7)CC6)CC5)c(F)c4)nc4[nH]ccc34)c21 (stereo partly drawn) [Example 64, 3-(4-((R)-3-(2-(4-(1-(2-fluoro-4-((4-((1-(methylsulfonyl)indolin-7-yl)amino)-7H-pyrrolo[2,3-d]pyrimidin-2-yl)amino)phenyl)piperidin-4-yl)piperazin-1-yl)ethyl)pyrrolidin-1-yl)phenyl)piperidine-2,6-dione] | 6.1 nM | 156 nM
